From patent US11841369B2, “Method for improving quality of therapeutic cell through real-time glutathione measurement” (CELL2IN, INC., priority 2017, dated 2023) come the findings set out here.

Experiment [1] deals with hUC-MSCs. Description: CFU-F assay of hUC-MSCs. In kind it is cell-based, human. To be noted: 125 or 250 μg/mL AA2G, three days. As for the experimental part:
The inventors observed an effect of the material on stem cells by treating each stem cells with a material for enhancing a glutathione evaluation parameter. When hUC-MSCs were subcultured in a L-AA2G-containing medium, CFU-F, migration capacity, and an anti-inflammatory effect were observed. A CFU-F assay (n=3) was performed by treating hUC-MSCs with 125 or 250 μg/mL of AA2G for three days. As shown in FIGS. 16A and 16B, it was confirmed that, when AA2G was treated, CFU-F increased. In addition, as hUC-MSCs were treated with 125 or 250 μg/mL of AA2G for three days, PDGF-AA-induced migration capacity (n=3) was analyzed. As shown in FIGS. 17A and 17B, it was confirmed that the migration capacity was increased by AA2G treatment. In addition, the reduction in T cell proliferation, a reduction in T cell differentiation, and the promotion of Treg cell differentiation were observed by treating hUC-MSCs with 125 or 250 μg/mL of AA2G for three days. […] Meanwhile, hUC-MSCs were cultured with a glutathione precursor such as γ-glutamyl cysteine (GGC, 0.1, 0.25, and 0.5 mM). A CFU-F assay (n=3) was performed by treating hUC-MSCs with each concentration of GGC for 2 hours. […] In addition, SDF1α and PDGF-AA-induced migration capacities (n=3) were analyzed for hUC-MSCs without treatment with GGC, and SDF1α- and PDGF-AA-induced migration abilities (n=3) were analyzed by treating hUC-MSCs with the increasing concentrations of GGC. STI571 was used as a PDGFR kinase inhibitor. As shown in FIGS. 20A to 20C, it was confirmed that, according to an increase in GGC treatment concentration, SDF1α- and PDGF-AA-induced migration capacities were enhanced. A CFU-F assay (n=3) was performed by treating hUC-MSCs with 0.2, 1, 2, and 4 μM ferrostatin-1 and 0.1, 0.5, 1, and 2 μM liproxstatin-1 for 24 hours.

In another experiment the test system is T cells. The experiment in a line: Anti-inflammatory effect of treated hUC-MSCs: T cell proliferation, T cell differentiation, Treg cell differentiation. To be noted: hUC-MSCs treated with 125 or 250 μg/mL AA2G, three days. The format is cell-based. As to the method: The inventors observed an effect of the material on stem cells by treating each stem cells with a material for enhancing a glutathione evaluation parameter. When hUC-MSCs were subcultured in a L-AA2G-containing medium, CFU-F, migration capacity, and an anti-inflammatory effect were observed. A CFU-F assay (n=3) was performed by treating hUC-MSCs with 125 or 250 μg/mL of AA2G for three days. As shown in FIGS. 16A and 16B, it was confirmed that, when AA2G was treated, CFU-F increased. In addition, as hUC-MSCs were treated with 125 or 250 μg/mL of AA2G for three days, PDGF-AA-induced migration capacity (n=3) was analyzed. As shown in FIGS. 17A and 17B, it was confirmed that the migration capacity was increased by AA2G treatment. In addition, the reduction in T cell proliferation, a reduction in T cell differentiation, and the promotion of Treg cell differentiation were observed by treating hUC-MSCs with 125 or 250 μg/mL of AA2G for three days.
In addition, hUC-MSCs were cultured with ferrostatin-1 (0.2, 1, 2 and 4 μM) and liproxstatin-1 (0.1, 0.5, 1 and 2 μM), which control a glutathione level in cells by inhibiting lipid oxidation. […] Meanwhile, the hUC-MSCs were treated with 1 μM ferrostatin-1 for 24 hours, 0.2 mM GGC for 2 hours, and 2 mM GSH-EE for 2 hours. As a result, the reduction in T cell proliferation ability and the reduction in T cell differentiation capacity were observed, and promotion of Treg cell differentiation was observed.

Experiment [2] relates to hUC-MSCs. The experiment in a line: Oxidative stress resistance capacity (ORC) analysis with RSL3. In kind it is cell-based, human. Particulars: hUC-MSCs subcultured three times with AA2G 250 μg/mL, vs naive cell group (NC). As to the method:
In addition, GH is calculated as the coefficient of variation or robust coefficient of variation of cellular FR. GRC refers to a value obtained by real-time monitoring of FR after living cells are treated with an oxidizing agent, as calculated by dividing a value obtained by subtracting AUC of a group treated with 0.1-100 mM N-ethylmaleimide (NEM) from FR AUC of an oxidizing agent (diamide, H2O2, etc.)-treated group by a value obtained by subtracting the AUC of NEM-treated group from AUC of the untreated control, and multiplying the resulting value by 100. The FR of the NEM-treated group is a value for increasing the sensitivity of a GRC value by treating it as the blank value of the FR of the cells of interest. […] To remove the MitoFreSH-Tracer from the medium before measurement, the medium was exchanged with fresh 10 mM HEPES-containing HBSS, and a fluorescence image was obtained using a confocal imaging system, Operetta. By comparing GSH levels quantified from control cells not treated with RSL3 or control cells before treated with RSL3, the distribution of GSH expression-changed cells was calculated. Based on the point where the distribution histogram is divided into two peaks, the cells were divided into GSH^High cells (right peak) and GSH^Low cells (left peak), and then a ratio of corresponding cells was expressed as a percentage (%). […]

On to `O=C1O[C@H]([C@@H](O)CO)C(O)=C1O[C@H]1O[C@H](CO)[C@@H](O)[C@H](O)[C@H]1O` [AA2G, ascorbic acid 2-glucoside], for which the CFU-F result in the experiment with hUC-MSCs [1] is reported as “increased”. In the experiment on T cells, the T cell differentiation result was “reduction”, the T cell proliferation entry was “reduction”, the Treg cell differentiation result is on record as “promotion” and the “anti-inflammatory effect of stem cells” value is given as “exhibited”. Moreover, the “FreSH-Tracer-based ORC (GSH^High cells)” value in the experiment with hUC-MSCs [2] is on record as “higher”.
